Measured values: BindingDB's records for PubMed 11504829 (University of Melbourne, 2001)

Experiments:
[1] = target: T1, Muscarinic acetylcholine receptor M1 (Homo sapiens, UniProt P11229)
T1 sequence (P11229 whole entry): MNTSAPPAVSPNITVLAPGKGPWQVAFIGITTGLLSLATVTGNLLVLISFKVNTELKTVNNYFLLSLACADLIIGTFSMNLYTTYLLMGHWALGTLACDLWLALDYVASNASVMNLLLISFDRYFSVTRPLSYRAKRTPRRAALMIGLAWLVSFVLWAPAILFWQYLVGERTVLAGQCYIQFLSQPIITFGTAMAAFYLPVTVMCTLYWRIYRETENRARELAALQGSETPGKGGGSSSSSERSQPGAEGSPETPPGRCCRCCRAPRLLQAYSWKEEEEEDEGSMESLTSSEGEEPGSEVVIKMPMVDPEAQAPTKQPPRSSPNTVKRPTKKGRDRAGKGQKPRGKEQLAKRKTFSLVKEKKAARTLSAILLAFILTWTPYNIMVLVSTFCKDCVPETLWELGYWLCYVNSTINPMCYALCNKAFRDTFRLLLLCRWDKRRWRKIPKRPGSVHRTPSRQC

[2] = target: Muscarinic acetylcholine receptor M3 (Homo sapiens, UniProt P20309)
Sequence of Muscarinic acetylcholine receptor M3 (P20309 whole entry): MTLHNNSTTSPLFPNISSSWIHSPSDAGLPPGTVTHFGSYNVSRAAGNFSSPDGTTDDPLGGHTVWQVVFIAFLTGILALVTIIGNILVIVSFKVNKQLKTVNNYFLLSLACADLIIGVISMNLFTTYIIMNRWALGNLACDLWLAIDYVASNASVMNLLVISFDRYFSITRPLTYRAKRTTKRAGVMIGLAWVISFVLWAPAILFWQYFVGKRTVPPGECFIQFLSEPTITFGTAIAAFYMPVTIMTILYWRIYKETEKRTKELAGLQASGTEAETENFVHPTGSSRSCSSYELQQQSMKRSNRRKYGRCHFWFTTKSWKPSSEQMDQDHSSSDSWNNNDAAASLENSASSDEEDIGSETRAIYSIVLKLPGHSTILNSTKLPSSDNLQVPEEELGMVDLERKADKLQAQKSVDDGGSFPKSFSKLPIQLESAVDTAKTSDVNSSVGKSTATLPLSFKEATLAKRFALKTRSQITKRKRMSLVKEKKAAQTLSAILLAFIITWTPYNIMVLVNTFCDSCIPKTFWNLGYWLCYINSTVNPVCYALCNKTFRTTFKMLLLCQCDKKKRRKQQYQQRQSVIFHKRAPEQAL

[3] = target: T2, Muscarinic acetylcholine receptor M2 (Homo sapiens, UniProt P08172)
T2 sequence (P08172 whole entry): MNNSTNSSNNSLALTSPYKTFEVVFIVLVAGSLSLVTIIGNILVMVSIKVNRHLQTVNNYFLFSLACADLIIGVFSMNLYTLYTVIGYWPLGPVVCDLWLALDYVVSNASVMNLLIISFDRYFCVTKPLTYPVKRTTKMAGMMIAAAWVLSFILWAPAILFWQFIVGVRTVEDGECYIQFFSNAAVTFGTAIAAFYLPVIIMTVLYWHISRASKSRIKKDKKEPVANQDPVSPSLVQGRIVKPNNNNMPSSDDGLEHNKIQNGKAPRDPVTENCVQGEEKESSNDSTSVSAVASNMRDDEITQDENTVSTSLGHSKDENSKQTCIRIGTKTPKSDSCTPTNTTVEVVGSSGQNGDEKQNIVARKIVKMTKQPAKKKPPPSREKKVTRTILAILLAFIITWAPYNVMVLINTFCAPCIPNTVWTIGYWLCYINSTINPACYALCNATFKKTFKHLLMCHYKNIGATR

[4] = target: T3, Muscarinic acetylcholine receptor M5 (Homo sapiens, UniProt P08912)
T3 sequence (P08912 whole entry): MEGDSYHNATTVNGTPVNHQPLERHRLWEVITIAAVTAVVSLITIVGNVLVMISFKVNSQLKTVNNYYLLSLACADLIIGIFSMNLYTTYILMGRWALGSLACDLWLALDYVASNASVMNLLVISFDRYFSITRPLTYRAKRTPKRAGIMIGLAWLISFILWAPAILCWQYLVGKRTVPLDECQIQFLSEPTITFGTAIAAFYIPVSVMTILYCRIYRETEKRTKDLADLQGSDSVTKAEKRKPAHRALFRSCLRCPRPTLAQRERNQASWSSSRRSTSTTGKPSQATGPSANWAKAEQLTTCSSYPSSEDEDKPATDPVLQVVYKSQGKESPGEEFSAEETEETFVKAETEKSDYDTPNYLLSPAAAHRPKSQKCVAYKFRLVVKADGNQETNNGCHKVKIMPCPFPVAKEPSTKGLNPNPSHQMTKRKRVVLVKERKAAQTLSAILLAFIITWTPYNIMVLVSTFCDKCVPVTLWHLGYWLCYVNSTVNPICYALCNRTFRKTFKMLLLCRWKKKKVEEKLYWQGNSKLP

[5] = target: T4, Muscarinic acetylcholine receptor M4 (Homo sapiens, UniProt P08173)
T4 sequence (P08173 whole entry): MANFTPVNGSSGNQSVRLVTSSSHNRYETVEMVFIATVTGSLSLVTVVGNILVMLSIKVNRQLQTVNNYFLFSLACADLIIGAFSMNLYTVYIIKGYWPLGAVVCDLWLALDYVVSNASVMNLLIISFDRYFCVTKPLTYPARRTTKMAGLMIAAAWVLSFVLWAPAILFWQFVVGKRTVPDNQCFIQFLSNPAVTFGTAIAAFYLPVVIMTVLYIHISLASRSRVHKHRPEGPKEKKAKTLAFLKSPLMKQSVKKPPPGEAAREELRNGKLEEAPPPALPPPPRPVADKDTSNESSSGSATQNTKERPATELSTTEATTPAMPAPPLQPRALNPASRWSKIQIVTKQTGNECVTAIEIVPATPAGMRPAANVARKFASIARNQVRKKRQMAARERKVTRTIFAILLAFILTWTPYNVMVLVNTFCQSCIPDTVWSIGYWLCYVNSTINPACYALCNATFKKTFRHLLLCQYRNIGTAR

[6] = target: T5, Muscarinic acetylcholine receptor M2 (Rattus norvegicus, UniProt P10980)
T5 sequence (P10980 whole entry): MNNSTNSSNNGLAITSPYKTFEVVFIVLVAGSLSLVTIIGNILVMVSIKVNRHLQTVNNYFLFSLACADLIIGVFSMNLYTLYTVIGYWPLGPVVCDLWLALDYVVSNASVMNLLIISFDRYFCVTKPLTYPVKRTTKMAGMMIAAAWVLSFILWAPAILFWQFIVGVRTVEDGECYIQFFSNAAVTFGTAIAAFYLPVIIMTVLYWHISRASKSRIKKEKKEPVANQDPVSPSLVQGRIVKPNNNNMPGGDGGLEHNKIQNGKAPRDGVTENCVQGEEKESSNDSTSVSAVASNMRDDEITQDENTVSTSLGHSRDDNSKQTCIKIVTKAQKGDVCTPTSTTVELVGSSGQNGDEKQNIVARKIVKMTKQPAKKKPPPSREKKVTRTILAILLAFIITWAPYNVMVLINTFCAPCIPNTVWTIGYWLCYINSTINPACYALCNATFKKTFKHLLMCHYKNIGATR

| SMILES | Ki [1] [nM] | Ki [2] [nM] | Ki [3] [nM] | Ki [4] [nM] | Ki [5] [nM] | Ki [6] [nM] |
| --- | --- | --- | --- | --- | --- | --- |
| C(#Cc1ccccc1)COc1nsnc1C1CN2CCC1CC2 (stereo unspecified) | 41.7 | 77.6 | 58.9 | 14.8 | 49 | – |
| C(#Cc1cccc(C#CCOc2nsnc2C2CN3CCC2CC3)c1)COc1nsnc1C1CN2CCC1CC2 (stereo unspecified) [NNC 11-1607] | 2.4 | 8.13 | 5.75 | 6.03 | 8.13 | 9.55 |
| C(#Cc1ccc(C#CCOc2nsnc2C2CN3CCC2CC3)cc1)COc1nsnc1C1CN2CCC1CC2 (stereo unspecified) [NNC 11-1585] | 0.129 | 4.68 | 0.079 | 5.25 | 2.57 | – |
